In ChEMBL document CHEMBL5370643, “Discovery of MK-1468: A Potent, Kinome-Selective, Brain-Penetrant Amidoisoquinoline LRRK2 Inhibitor for the Potential Treatment of Parkinson's Disease” (J Med Chem, 2023):

Key:
[1] = Toxicity in po dosed Wistar-Han rat assessed as NOAEL measured upto 24 hrs; type: organism-based; details: in vivo, read-out: Activity
[2] = Protein binding in rhesus monkey plasma incubated for 4 hrs by equilibrium dialysis method; type: ADME, cell-free, Macaca mulatta; details: read-out: PPB (converted)
Nav1.5 = Nav1.5 (Homo sapiens, UniProt Q14524); experiment: Inhibition of human Nav1.5 expressed in HEK293 cells at 30 uM by QPatch voltage clamp assay relative to control; type: cell-based; details: HEK293 cells expressing human Nav1.5
Nav1.5, sequence (Q14524 whole entry): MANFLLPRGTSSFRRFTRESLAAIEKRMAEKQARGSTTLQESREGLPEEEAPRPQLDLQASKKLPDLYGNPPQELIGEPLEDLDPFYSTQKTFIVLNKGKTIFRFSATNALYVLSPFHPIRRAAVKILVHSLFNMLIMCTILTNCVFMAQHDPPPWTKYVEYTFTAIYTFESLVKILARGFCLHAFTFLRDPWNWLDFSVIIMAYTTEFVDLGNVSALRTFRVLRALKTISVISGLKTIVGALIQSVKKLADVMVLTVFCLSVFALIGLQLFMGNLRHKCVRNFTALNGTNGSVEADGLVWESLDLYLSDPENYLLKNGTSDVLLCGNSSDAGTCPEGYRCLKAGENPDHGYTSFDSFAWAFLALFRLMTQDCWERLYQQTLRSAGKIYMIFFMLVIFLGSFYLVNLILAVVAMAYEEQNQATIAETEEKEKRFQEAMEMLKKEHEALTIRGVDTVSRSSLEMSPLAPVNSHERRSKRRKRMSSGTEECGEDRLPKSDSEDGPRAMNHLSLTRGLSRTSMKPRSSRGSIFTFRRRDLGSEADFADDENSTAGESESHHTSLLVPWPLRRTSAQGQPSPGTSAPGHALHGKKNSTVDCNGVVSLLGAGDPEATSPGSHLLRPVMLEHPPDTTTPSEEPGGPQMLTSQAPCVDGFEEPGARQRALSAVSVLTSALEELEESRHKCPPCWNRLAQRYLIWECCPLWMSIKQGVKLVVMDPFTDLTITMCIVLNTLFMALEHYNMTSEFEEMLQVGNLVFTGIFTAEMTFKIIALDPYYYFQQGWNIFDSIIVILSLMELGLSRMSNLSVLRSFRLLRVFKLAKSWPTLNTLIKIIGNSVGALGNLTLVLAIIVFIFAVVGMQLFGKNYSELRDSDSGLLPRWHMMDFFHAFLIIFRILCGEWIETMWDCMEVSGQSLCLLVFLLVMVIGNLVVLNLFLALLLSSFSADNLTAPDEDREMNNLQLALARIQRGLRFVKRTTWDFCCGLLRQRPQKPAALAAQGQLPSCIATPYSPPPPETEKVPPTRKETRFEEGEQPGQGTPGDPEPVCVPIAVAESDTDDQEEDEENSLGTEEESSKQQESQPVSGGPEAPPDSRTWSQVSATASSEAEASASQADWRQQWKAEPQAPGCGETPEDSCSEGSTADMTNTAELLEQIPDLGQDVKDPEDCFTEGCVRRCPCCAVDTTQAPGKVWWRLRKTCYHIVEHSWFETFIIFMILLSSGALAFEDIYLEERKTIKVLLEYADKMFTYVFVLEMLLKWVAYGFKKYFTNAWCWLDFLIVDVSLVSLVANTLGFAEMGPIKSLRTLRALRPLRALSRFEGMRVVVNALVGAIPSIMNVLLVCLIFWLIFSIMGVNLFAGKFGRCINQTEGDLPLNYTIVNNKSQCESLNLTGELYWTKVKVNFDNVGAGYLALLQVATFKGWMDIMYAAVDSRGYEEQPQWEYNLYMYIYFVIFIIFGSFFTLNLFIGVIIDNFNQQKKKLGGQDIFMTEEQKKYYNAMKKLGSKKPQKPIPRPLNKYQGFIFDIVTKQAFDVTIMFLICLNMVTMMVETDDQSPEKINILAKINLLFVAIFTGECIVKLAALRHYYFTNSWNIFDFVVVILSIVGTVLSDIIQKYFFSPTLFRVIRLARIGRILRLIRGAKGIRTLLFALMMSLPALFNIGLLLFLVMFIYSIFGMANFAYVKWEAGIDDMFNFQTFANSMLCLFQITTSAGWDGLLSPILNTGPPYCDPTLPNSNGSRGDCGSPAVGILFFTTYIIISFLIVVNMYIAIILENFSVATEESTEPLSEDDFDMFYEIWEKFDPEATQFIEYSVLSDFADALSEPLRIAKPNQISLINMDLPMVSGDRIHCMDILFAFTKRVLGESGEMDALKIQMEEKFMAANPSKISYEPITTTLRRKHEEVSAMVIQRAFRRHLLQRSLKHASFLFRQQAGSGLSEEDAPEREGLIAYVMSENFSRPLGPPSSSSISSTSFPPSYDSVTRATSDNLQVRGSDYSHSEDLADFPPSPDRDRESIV

[3] = Cmax in Wistar-Han rat at 48 mg administered twice a day by LC-MS/MS analysis; type: ADME; parameters: dose 48 mg; details: in vivo

fraction unbound at 4 h [2]: 0.12 | Cmax [3]: 750 nM
SMILES: C[C@@]1(N2CCN(c3cc4cc(NC(=O)[C@H]5CC56CCOCC6)ncc4cc3Cl)CC2)COC[C@@H]1O
NOAEL at 24 h [1]: 60 mg/kg | inhibition at 30 µM (Nav1.5): 34%
